Tested on: 282377-053-R-J1-PDC complex spheroids, viability
Experiment: Anticancer human tumor 282377-053-R-J1-PDC patient-derived colon adenocarcinoma cell line growth inhibition [GQUAD]
Details: for IC50: curve of first compound; for viability, T/C: stronger effect = lower value
Procedure, shortened: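 Tumor cells were grown as complex spheroids with HUVEC endothelial cells and mesenchymal stem cells as stroma. G-quadruplex stabilizers were combined with targeted agents over half-log dilutions from near the clinical Cmax, or from 10 microM.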

[1] = second compound 0.0316 µM, first compound 0.0316 µM
[2] = second compound 0.0316 µM, first compound 0.1 µM
[3] = second compound 0.0316 µM, first compound 0.316 µM
[4] = second compound 0.0316 µM, first compound 1 µM
[5] = second compound 0.0316 µM, first compound 3.16 µM
[6] = second compound 0.0316 µM, first compound 10 µM
[7] = second compound 0.1 µM, first compound 0.0316 µM
[8] = second compound 0.1 µM, first compound 0.1 µM
[9] = second compound 0.1 µM, first compound 0.316 µM
[10] = second compound 0.1 µM, first compound 1 µM
[11] = second compound 0.1 µM, first compound 3.16 µM
[12] = second compound 0.1 µM, first compound 10 µM
[13] = second compound 0.316 µM, first compound 0.0316 µM
[14] = second compound 0.316 µM, first compound 0.1 µM
[15] = second compound 0.316 µM, first compound 0.316 µM
[16] = second compound 0.316 µM, first compound 1 µM
[17] = second compound 0.316 µM, first compound 3.16 µM
[18] = second compound 0.316 µM, first compound 10 µM
[19] = second compound 1 µM, first compound 0.0316 µM
[20] = second compound 1 µM, first compound 0.1 µM
[21] = second compound 1 µM, first compound 0.316 µM
[22] = second compound 1 µM, first compound 1 µM
[23] = second compound 1 µM, first compound 3.16 µM
[24] = second compound 1 µM, first compound 10 µM
[25] = second compound 3.16 µM, first compound 0.0316 µM
[26] = second compound 3.16 µM, first compound 0.1 µM
[27] = second compound 3.16 µM, first compound 0.316 µM
[28] = second compound 3.16 µM, first compound 1 µM
[29] = second compound 3.16 µM, first compound 3.16 µM
[30] = second compound 3.16 µM, first compound 10 µM
[31] = second compound 10 µM, first compound 0.0316 µM
[32] = second compound 10 µM, first compound 0.1 µM
[33] = second compound 10 µM, first compound 0.316 µM
[34] = second compound 10 µM, first compound 1 µM
[35] = second compound 10 µM, first compound 3.16 µM
[36] = second compound 10 µM, first compound 10 µM
[37] = second compound 0.0316 µM, first compound 0.000999 µM
[38] = second compound 0.0316 µM, first compound 0.00316 µM
[39] = second compound 0.0316 µM, first compound 0.00999 µM
[40] = second compound 0.0316 µM, first compound 0.0999 µM
[41] = second compound 0.1 µM, first compound 0.000999 µM
[42] = second compound 0.1 µM, first compound 0.00316 µM
[43] = second compound 0.1 µM, first compound 0.00999 µM
[44] = second compound 0.1 µM, first compound 0.0999 µM
[45] = second compound 0.316 µM, first compound 0.000999 µM
[46] = second compound 0.316 µM, first compound 0.00316 µM
[47] = second compound 0.316 µM, first compound 0.00999 µM
[48] = second compound 0.316 µM, first compound 0.0999 µM
[49] = second compound 1 µM, first compound 0.000999 µM
[50] = second compound 1 µM, first compound 0.00316 µM
[51] = second compound 1 µM, first compound 0.00999 µM
[52] = second compound 1 µM, first compound 0.0999 µM
[53] = second compound 3.16 µM, first compound 0.000999 µM
[54] = second compound 3.16 µM, first compound 0.00316 µM
[55] = second compound 3.16 µM, first compound 0.00999 µM
[56] = second compound 3.16 µM, first compound 0.0999 µM
[57] = second compound 10 µM, first compound 0.000999 µM
[58] = second compound 10 µM, first compound 0.00316 µM
[59] = second compound 10 µM, first compound 0.00999 µM
[60] = second compound 10 µM, first compound 0.0999 µM
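Also: spheroids exposed to compounds for 7 days before readout.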
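For viability, T/C in this document: percent of vehicle DMSO control viability with 100% = untreated-like growth.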

`CC(=O)O[C@H]1C(=O)[C@@]2(C)[C@H]([C@H](OC(=O)c3ccccc3)[C@]3(O)C[C@H](OC(=O)[C@H](O)[C@@H](NC(=O)c4ccccc4)c4ccccc4)C(C)=C1C3(C)C)[C@]1(OC(C)=O)CO[C@@H]1C[C@@H]2O` + CN(C)c1ccc(Nc2c3ccc(NC(=O)CCN4CCCC4)cc3nc3cc(NC(=O)CCN4CCCC4)ccc23)cc1 gave an IC50 (second compound 0.0316 µM) of 42 nM, an IC50 (second compound 0.1 µM) of 44.7 nM and an IC50 (second compound 0.316 µM) of 48.8 nM. For the same compound, the IC50 (second compound 1 µM) was 34.7 nM, the IC50 (second compound 3.16 µM) was 39.1 nM and the IC50 (second compound 10 µM) was < 31.6 nM. The viability, T/C [1] was 59.7%, the viability, T/C [2] was 14.9% and the viability, T/C [3] was 18.9%. The viability, T/C [4] was 18.1%, the viability, T/C [5] was 22% and the viability, T/C [6] was 25.2%. It also gave a viability, T/C [7] of 63.1%, a viability, T/C [8] of 15.6% and a viability, T/C [9] of 17.4%. It also gave a viability, T/C [10] of 17.6%, a viability, T/C [11] of 21.3% and a viability, T/C [12] of 25.8%. For the same compound, the viability, T/C [13] was 68%, the viability, T/C [14] was 17.1% and the viability, T/C [15] was 18.5%. For the same compound, the viability, T/C [16] was 18.1%, the viability, T/C [17] was 19.1% and the viability, T/C [18] was 28.9%. It also gave a viability, T/C [19] of 52.5%, a viability, T/C [20] of 15.7% and a viability, T/C [21] of 18.1%. It also gave a viability, T/C [22] of 17.4%, a viability, T/C [23] of 26.8% and a viability, T/C [24] of 25%. The viability, T/C [25] was 56.7%, the viability, T/C [26] was 18.4% and the viability, T/C [27] was 16.8%. For the same compound, the viability, T/C [28] was 17.2%, the viability, T/C [29] was 19.2% and the viability, T/C [30] was 24.7%. It also gave a viability, T/C [31] of 47.2%, a viability, T/C [32] of 14.8% and a viability, T/C [33] of 14.5%. The viability, T/C [34] was 18.8%, the viability, T/C [35] was 22.8% and the viability, T/C [36] was 28.4%.
In the case of `CCc1c2c(nc3ccc(O)cc13)-c1cc3c(c(=O)n1C2)COC(=O)[C@]3(O)CC` + CN(C)c1ccc(Nc2c3ccc(NC(=O)CCN4CCCC4)cc3nc3cc(NC(=O)CCN4CCCC4)ccc23)cc1, the IC50 (second compound 0.0316 µM) is reported as 170 nM, the IC50 (second compound 0.1 µM) is reported as 162 nM and the IC50 (second compound 0.316 µM) is reported as 148 nM. For the same compound, the IC50 (second compound 1 µM) was 117 nM, the IC50 (second compound 3.16 µM) was 211 nM and the IC50 (second compound 10 µM) was 218 nM. For the same compound, the viability, T/C [37] was 102%, the viability, T/C [38] was 104% and the viability, T/C [39] was 85.5%. The viability, T/C [1] was 69.5%, the viability, T/C [40] was 61.8% and the viability, T/C [3] was 40%. The viability, T/C [41] was 104%, the viability, T/C [42] was 90.9% and the viability, T/C [43] was 92.1%. The viability, T/C [7] was 60.7%, the viability, T/C [44] was 61.2% and the viability, T/C [9] was 40.9%. It also gave a viability, T/C [45] of 110%, a viability, T/C [46] of 107% and a viability, T/C [47] of 71.6%. For the same compound, the viability, T/C [13] was 70.9%, the viability, T/C [48] was 53.8% and the viability, T/C [15] was 43%. It also gave a viability, T/C [49] of 95.2%, a viability, T/C [50] of 97.6% and a viability, T/C [51] of 92.4%. It also gave a viability, T/C [19] of 76.8%, a viability, T/C [52] of 51.2% and a viability, T/C [21] of 42.5%. For the same compound, the viability, T/C [53] was 103%, the viability, T/C [54] was 105% and the viability, T/C [55] was 91.6%. It also gave a viability, T/C [25] of 68.7%, a viability, T/C [56] of 63.1% and a viability, T/C [27] of 43.7%. The viability, T/C [57] was 108%, the viability, T/C [58] was 102% and the viability, T/C [59] was 99.5%. For the same compound, the viability, T/C [31] was 86.2%, the viability, T/C [60] was 63.1% and the viability, T/C [33] was 43.6%.
`C=CC(=O)N1CCN(c2nc(=O)n(-c3c(C)ccnc3C(C)C)c3nc(-c4c(O)cccc4F)c(F)cc23)C(C)C1` (stereo not drawn) + CN(C)c1ccc(Nc2c3ccc(NC(=O)CCN4CCCC4)cc3nc3cc(NC(=O)CCN4CCCC4)ccc23)cc1 was tested, and the IC50 (second compound 0.0316 µM) was > 10000 nM, the IC50 (second compound 0.1 µM) was > 10000 nM and the IC50 (second compound 0.316 µM) was > 10000 nM. The IC50 (second compound 1 µM) was > 10000 nM, the IC50 (second compound 3.16 µM) was > 10000 nM and the IC50 (second compound 10 µM) was > 10000 nM. The viability, T/C [1] was 105%, the viability, T/C [2] was 104% and the viability, T/C [3] was 99.3%. The viability, T/C [4] was 99%, the viability, T/C [5] was 87% and the viability, T/C [6] was 79%. For the same compound, the viability, T/C [7] was 107%, the viability, T/C [8] was 94.5% and the viability, T/C [9] was 110%. For the same compound, the viability, T/C [10] was 96%, the viability, T/C [11] was 107% and the viability, T/C [12] was 66.6%. For the same compound, the viability, T/C [13] was 115%, the viability, T/C [14] was 97.6% and the viability, T/C [15] was 103%. It also gave a viability, T/C [16] of 101%, a viability, T/C [17] of 103% and a viability, T/C [18] of 72.4%. It also gave a viability, T/C [19] of 112%, a viability, T/C [20] of 99.5% and a viability, T/C [21] of 98.5%. For the same compound, the viability, T/C [22] was 95.9%, the viability, T/C [23] was 90.5% and the viability, T/C [24] was 92.8%. For the same compound, the viability, T/C [25] was 105%, the viability, T/C [26] was 90.2% and the viability, T/C [27] was 100%. The viability, T/C [28] was 84.9%, the viability, T/C [29] was 79.9% and the viability, T/C [30] was 89.9%. The viability, T/C [31] was 111%, the viability, T/C [32] was 93.3% and the viability, T/C [33] was 94.5%. It also gave a viability, T/C [34] of 79.8%, a viability, T/C [35] of 88.3% and a viability, T/C [36] of 86.5%.
In the case of `Cn1ncnc1[C@H]1c2n[nH]c(=O)c3cc(F)cc(c23)N[C@@H]1c1ccc(F)cc1` + Cc1[nH]c2ccc(F)cc2c1-c1nc2c3cccnc3c3ncccc3c2[nH]1, the IC50 (second compound 0.0316 µM) is reported as > 316 nM, the IC50 (second compound 0.1 µM) is reported as > 316 nM and the IC50 (second compound 0.316 µM) is reported as > 316 nM. The IC50 (second compound 1 µM) was > 316 nM, the IC50 (second compound 3.16 µM) was > 316 nM and the IC50 (second compound 10 µM) was > 316 nM. The viability, T/C [37] was 95.8%, the viability, T/C [38] was 80.1% and the viability, T/C [39] was 96.7%. The viability, T/C [1] was 88.1%, the viability, T/C [40] was 109% and the viability, T/C [3] was 90.2%. It also gave a viability, T/C [41] of 91.8%, a viability, T/C [42] of 87.3% and a viability, T/C [43] of 101%. It also gave a viability, T/C [7] of 85.3%, a viability, T/C [44] of 93.2% and a viability, T/C [9] of 97.9%. It also gave a viability, T/C [45] of 95.1%, a viability, T/C [46] of 104% and a viability, T/C [47] of 81.1%. The viability, T/C [13] was 110%, the viability, T/C [48] was 90.5% and the viability, T/C [15] was 106%. For the same compound, the viability, T/C [49] was 79.3%, the viability, T/C [50] was 87.7% and the viability, T/C [51] was 80.7%. The viability, T/C [19] was 89.2%, the viability, T/C [52] was 111% and the viability, T/C [21] was 86%. It also gave a viability, T/C [53] of 67.7%, a viability, T/C [54] of 65.8% and a viability, T/C [55] of 71.8%. The viability, T/C [25] was 66.4%, the viability, T/C [56] was 86.8% and the viability, T/C [27] was 70.3%. It also gave a viability, T/C [57] of 48.9%, a viability, T/C [58] of 51.7% and a viability, T/C [59] of 57.2%. For the same compound, the viability, T/C [31] was 45%, the viability, T/C [60] was 41.1% and the viability, T/C [33] was 57.4%.

Reference: PubChem BioAssay AID2060501 (Molecular Pharmacology Branch, DTP, NCI, 2025)
